Experiments:
K562 = assay: Cytotoxicity against human K562 cells assessed as cell growth inhibition after 72 hrs by MTT assay; format: functional, cell-based; settings: K562, 72 h
HeLa = assay: Cytotoxicity against human HeLa cells assessed as cell growth inhibition after 72 hrs by MTT assay; format: functional, cell-based
[1] = Cytotoxicity against human HL60 cells assessed as cell growth inhibition after 72 hrs by MTT assay; format: functional, cell-based; settings: HL-60, 72 h
MRC5 = assay: Cytotoxicity against human MRC5 cells assessed as cell growth inhibition after 72 hrs by MTT assay; format: functional, cell-based; settings: MRC5, 72 h
MCF7 = assay: Cytotoxicity against human MCF7 cells assessed as cell growth inhibition after 72 hrs by MTT assay; format: functional, cell-based; settings: MCF7, 72 h
Jurkat = assay: Cytotoxicity against human Jurkat cells assessed as cell growth inhibition after 72 hrs by MTT assay; format: functional, cell-based
A549 [2] = assay: Cytotoxicity against human A549 cells assessed as cell growth inhibition after 72 hrs by MTT assay; format: functional, cell-based; settings: A549, 72 h
MDA-MB-231 [3] = assay: Cytotoxicity against human MDA-MB-231 cells assessed as cell growth inhibition after 72 hrs by MTT assay; format: functional, cell-based; settings: MDA-MB-231, 72 h
Raji = assay: Cytotoxicity against human Raji cells assessed as cell growth inhibition after 72 hrs by MTT assay; format: functional, cell-based
MDA-MB-231 [4] = assay: Potency index, ratio of Doxorubicin IC50 to ratio of compound IC50 for human MDA-MB-231 cells; format: functional
A549 [5] = assay: Potency index, ratio of Doxorubicin IC50 to ratio of compound IC50 for human A549 cells; format: functional

Row | SMILES | IC50 (K562) [µM] | IC50 (HeLa) [µM] | IC50 [1] [µM] | IC50 (MRC5) [µM] | IC50 (MCF7) [µM] | IC50 (Jurkat) [µM] | IC50 (A549 [2]) [µM] | IC50 (MDA-MB-231 [3]) [µM] | IC50 (Raji) [µM] | Ratio IC50 (MDA-MB-231 [4]) | Ratio IC50 (A549 [5])
1 | CC(=O)O[C@@H]1C=CC(=O)O[C@@H]1[C@@H](COC(=O)c1ccccc1)OC(C)=O | 7.65 | 7.32 | 1.21 | > 100 | 26.1 | 14.2 | 16.3 | 2.25 | 36.9 | – | –
2 | CC(=O)O[C@@H]1C=CC(=O)O[C@@H]1[C@@H](COC(=O)c1c(Cl)cc(Cl)cc1Cl)OC(C)=O | 1.02 | 14 | 36.2 | 45.7 | 0.62 | 6.25 | 4.23 | 0.02 | 11.2 | 4.5 | –
3 | COc1cccc(C(=O)OC[C@@H](OC(C)=O)[C@H]2OC(=O)C=C[C@H]2OC(C)=O)c1 | 2.69 | 1.95 | 0.89 | 91.3 | 4.71 | 8.31 | 11 | 7.46 | 25.6 | – | –
4 | CC(=O)O[C@@H]1C=CC(=O)O[C@@H]1[C@@H](COC(=O)/C=C/c1ccccc1)OC(C)=O | 0.28 | 0.21 | 24.6 | > 100 | 16 | 0.25 | 2.02 | 1.46 | 11.2 | – | 2.5
5 | COc1cccc2c1C(=O)c1c(O)c3c(c(O)c1C2=O)C[C@@](O)(C(=O)CO)C[C@@H]3O[C@H]1C[C@H](N)[C@H](O)[C@H](C)O1 [DOXORUBICIN] | – | – | 0.92 | – | – | – | – | – | – | – | –

Source: ChEMBL document CHEMBL3813607, “New antitumour agents with α,β-unsaturated δ-lactone scaffold: Synthesis and antiproliferative activity of (-)-cleistenolide and analogues” (Bioorg Med Chem Lett, 2016)
